# US20140031217A1, “HERBICIDAL COMPOSITIONS COMPRISING 4-AMINO-3-CHLORO-5-FLUORO-6-(4-CHLORO-2-FLUORO-3-METHOXYPHENYL)PYRIDINE-2-CARBOXYLIC ACID OR A DERIVATIVE THEREOF AND AUXIN TRANSPORT INHIBITORS” (DOW AGROSCIENCES LLC, priority 2012, published 2014)
# How the values were obtained:
# ECHCO = assay: Postemergence foliar-applied greenhouse weed control, ECHCO; format: in vivo, Echinochloa colona (L.) Link; conditions: 21 DAA
# Excerpt: (§1) Seeds or nutlets of the desired test plant species were planted in a soil matrix prepared by mixing a loam or sandy loam soil (e.g., 28.6 percent silt, 18.8 percent clay, and 52.6 percent sand, with a pH of about 5.8 and an organic matter content of about 1.8 percent) and calcareous grit in an 80 to 20 ratio. The soil matrix was contained in plastic pots with a volume of 1 quart and a surface area of 83.6 square centimeters (cm^2). When required to ensure good germination and healthy plants, a fungicide treatment and/or other chemical or physical treatment was applied. The plants were grown for 8-22 days in a greenhouse with an approximate 14 h photoperiod which was maintained at about 29° C. during the day and 26° C. during the night. Nutrients (Peters Excel® 15-5-15 5-Ca 2-Mg and iron chelate) were applied in the irrigation solution as needed and water was added on a regular basis. Supplemental lighting was provided with overhead metal halide 1000-Watt lamps as necessary. The plants were employed for testing when they reached the first through fourth true leaf stage.
# (§2) Treatments consisted of the acid or esters of 4-amino-3-chloro-5-fluoro-6-(4-chloro-2-fluoro-3-methoxy-phenyl) pyridine-2-carboxylic acid (Compound A), each formulated as an SC (suspension concentrate), and various herbicidal components alone and in combination. Forms of compound A were applied on an acid equivalent basis.
# (§3) Other herbicidal components were applied on an active ingredient basis and included auxin transport inhibiting (ATI) herbicides chlorflurenol (technical material), chlorflurenol-methyl (technical material), diflufenzopyr (technical material), diflufenzopyr sodium (technical material), flurenol-methyl (technical material) and naptalam (technical material).
# (§4) Treatment requirements were calculated based upon the rates being tested, the concentration of active ingredient or acid equivalent in the formulation, and a 12 mL application volume at a rate of 187 L/ha.
# (§5) For treatments comprised of formulated and technical compounds, weighed amounts of the technical materials were placed individually in 25 mL glass vials and dissolved in a volume of 97:3 v/v acetone/DMSO to obtain 12× stock solutions, and measured amounts of the formulated compounds were placed individually in 25 mL glass vials and diluted in a volume of 1.5% (v/v) crop oil concentrate or water to obtain 12× stock solutions. […] Application solutions were prepared by adding an appropriate amount of each stock solution (e.g., 1 mL) and diluted to the appropriate final concentrations with the addition of an appropriate amount of an aqueous mixture of 1.5% (v/v) crop oil concentrate so that the final spray solutions contained 1.25% (v/v) crop oil concentrate. When required, additional water and/or 97:3 v/v acetone/DMSO was added to individual application solutions so that the final acetone and DMSO concentrations of the application solutions being compared were 8.1% and 0.25%, respectively.
# (§6) All stock solutions and applications solutions were visually inspected for compound compatibility prior to application. Spray solutions were applied to the plant material with an overhead Mandel track sprayer equipped with an 8002E nozzle calibrated to deliver 187 L/ha over an application area of 0.503 m^2 at a spray height of 18 to 20 inches (46 to 50 cm) above average plant canopy height. Control plants were sprayed in the same manner with the solvent blank.
# (§7) The treated plants and control plants were placed in a greenhouse as described above and watered by sub-irrigation to prevent wash-off of the test compounds. After approximately 3 weeks, the condition of the test plants as compared with that of the untreated plants was determined visually and scored on a scale of 0 to 100 percent where 0 corresponds to no injury or growth inhibition and 100 corresponds to complete kill. […]
# BRAPP = assay: Postemergence foliar-applied greenhouse weed control, BRAPP; format: in vivo, Brachiaria platyphylla (Griseb.) Nash
# Excerpt: as §1, §2, §3, §4, §5, §6, §7
# IPOHE = assay: Postemergence foliar-applied greenhouse weed control, IPOHE; format: in vivo, Ipomoea hederacea Jacq.
# Excerpt: as §1, §2, §3, §4, §5, §6, §7
# LEFCH = assay: Postemergence foliar-applied greenhouse weed control, LEFCH; format: in vivo, Leptochloa chinensis (L.) Nees
# Excerpt: as §1, §2, §3, §4, §5, §6, §7
# DIGSA = assay: Postemergence foliar-applied greenhouse weed control, DIGSA; format: in vivo, Digitaria sanguinalis (L.) Scop.; conditions: 21 DAA
# Excerpt: as §1, §2, §3, §4, §5, §6, §7
# FIMMI = assay: In-water applied (paddy) greenhouse weed control, FIMMI; format: in vivo, Fimbristylis miliacea (L.) Vahl; conditions: 19 DAA
# Method: (§8) Weed seeds or nutlets of the desired test plant species were planted in puddled soil (mud) prepared by mixing a shredded, non-sterilized mineral soil (50.5 percent silt, 25.5 percent clay, and 24 percent sand, with a pH of about 7.6 and an organic matter content of about 2.9 percent) and water at a 1:1 volumetric ratio. The prepared mud was dispensed in 365 mL aliquots into 16-ounce (oz.) non-perforated plastic pots with a surface area of 86.59 square centimeters (cm^2) leaving a headspace of 3 centimeters (cm) in each pot. Mud was allowed to dry overnight prior to planting or transplanting. Rice seeds were planted in Sun Gro MetroMix® 306 planting mixture, which typically has a pH of 6.0 to 6.8 and an organic matter content of about 30 percent, in plastic plug trays. Seedlings at the second or third leaf stage of growth were transplanted into 840 mL of mud contained in 32-oz. non-perforated plastic pots with a surface area of 86.59 cm^2 4 days prior to herbicide application. The paddy was created by filling the headspace of the pots with 2.5 to 3 cm of water. When required to ensure good germination and healthy plants, a fungicide treatment and/or other chemical or physical treatment was applied. The plants were grown for 4-22 days in a greenhouse with an approximate 14 h photoperiod which was maintained at about 29′C during the day and 26° C. during the night. Nutrients were added as Osmocote® (19:6:12, N:P:K+minor nutrients) at 2 g per 16-oz. pot and 4 g per 960-mL 32-oz. pot. Water was added on a regular basis to maintain the paddy flood, and supplemental lighting was provided with overhead metal halide 1000-Watt lamps as necessary. The plants were employed for testing when they reached the second or third true leaf stage.
# (§9) Treatments consisted of the acid or esters of 4-amino-3-chloro-5-fluoro-6-(4-chloro-2-fluoro-3-methoxy-phenyl)pyridine-2-carboxylic acid (compound A) each formulated as an SC and various herbicidal components alone and in combination. Forms of compound A were applied on an acid equivalent basis.
# (§10) Other herbicidal components were applied on an active ingredient basis and included auxin transport inhibiting (ATI) herbicides chlorflurenol-methyl (technical material), chlorflurenol (technical material), diflufenzopyr (technical material), dilfufenzopyr sodium (technical material), flurenol-methyl (technical material,) and naptalam (technical material).
# (§11) Treatment requirements for each compound or herbicidal component were calculated based upon the rates being tested, the concentration of active ingredient or acid equivalent in the formulation, an application volume of 2 mL per component per pot, and an application area of 86.59 cm^2 per pot.
# (§12) For formulated compounds, a measured amount was placed in an individual 100 or 200 mL glass vial and was dissolved in a volume of 1.25% (v/v) Agri-Dex® crop oil concentrate to obtain application solutions.
# (§13) For technical grade compounds, a weighed amount was placed in an individual 100 to 200 mL glass vial and was dissolved in a volume of acetone to obtain concentrated stock solutions. […] The concentrated stock solutions obtained were diluted with an equivalent volume of an aqueous mixture containing 2.5% (v/v) crop oil concentrate so that the final application solutions contained 1.25% (v/v) crop oil concentrate.
# (§14) Applications were made by injecting with a pipetter appropriate amounts of the application solutions, individually and sequentially, into the aqueous layer of the paddy. Control plants were treated in the same manner with the solvent blank. Applications were made so that all treated plant material received the same concentrations of acetone and crop oil concentrate.
# (§15) The treated plants and control plants were placed in a greenhouse as described above and water was added as needed to maintain a paddy flood. […]
# CYPRO = assay: In-water applied (paddy) greenhouse weed control, CYPRO; format: in vivo, Cyperus rotundus L.; conditions: 19 DAA
# Method: as §8, §9, §10, §11, §12, §13, §14, §15
# ECHCG = assay: In-water applied (paddy) greenhouse weed control, ECHCG; format: in vivo, Echinochloa crusgalli (L.) Beauv.; conditions: 19 DAA
# Method: as §8, §9, §10, §11, §12, §13, §14, §15
# CYPIR = assay: Postemergence foliar-applied greenhouse weed control, CYPIR; format: in vivo, Cyperus iria L.; conditions: 22 DAA
# Excerpt: as §1, §2, §3, §4, §5, §6, §7
# ECHOR = assay: In-water applied (paddy) greenhouse weed control, ECHOR; format: in vivo, Echinochloa oryzoides (Ard.) Fritsch; conditions: 19 DAA
# Method: as §8, §9, §10, §11, §12, §13, §14, §15
smiles,measurement,setting,value
"C/C(=N\NC(=O)Nc1cc(F)cc(F)c1)c1ncccc1C(=O)O [Diflufenzopyr, 2-{(E)-1-[4-(3,5-difluorophenyl)-semicarbazono]-ethyl}nicotinic acid]",Visual Weed Control (%) Obs,ECHCO; 8.75 gai/ha,30%
same,Visual Weed Control (%) Obs,ECHCO; 17.5 gai/ha,30%
same,Visual Weed Control (%) Obs,ECHCO; 35 gai/ha,40%
same,Visual Weed Control (%) Obs,"BRAPP; 21 DAA, 8.75 gai/ha",0%
same,Visual Weed Control (%) Obs,"BRAPP; 21 DAA, 17.5 gai/ha",40%
same,Visual Weed Control (%) Obs,"BRAPP; 21 DAA, 35 gai/ha",80%
same,Visual Weed Control (%) Obs,"IPOHE; 21 DAA, 8.75 gai/ha",75%
same,Visual Weed Control (%) Obs,"IPOHE; 21 DAA, 17.5 gai/ha",70%
same,Visual Weed Control (%) Obs,"LEFCH; 21 DAA, 8.75 gai/ha",0%
same,Visual Weed Control (%) Obs,"LEFCH; 21 DAA, 17.5 gai/ha",10%
same,Visual Weed Control (%) Obs,DIGSA; 17.5 gai/ha,10%
same,Visual Weed Control (%) Obs,DIGSA; 35 gai/ha,20%
COC(=O)C1(O)c2ccccc2-c2ccccc21 [Flurenol-methyl],Visual Weed Control (%) Obs,FIMMI; 68.75 gai/ha,0%
same,Visual Weed Control (%) Obs,FIMMI; 137.5 gai/ha,0%
same,Visual Weed Control (%) Obs,FIMMI; 275 gai/ha,20%
same,Visual Weed Control (%) Obs,CYPRO; 68.75 gai/ha,0%
same,Visual Weed Control (%) Obs,CYPRO; 137.5 gai/ha,0%
same,Visual Weed Control (%) Obs,"BRAPP; 22 DAA, 68.75 gai/ha",0%
same,Visual Weed Control (%) Obs,"BRAPP; 22 DAA, 137.5 gai/ha",0%
same,Visual Weed Control (%) Obs,"BRAPP; 22 DAA, 275 gai/ha",30%
same,Visual Weed Control (%) Obs,ECHCG; 68.75 gai/ha,0%
same,Visual Weed Control (%) Obs,ECHCG; 137.5 gai/ha,0%
same,Visual Weed Control (%) Obs,ECHCG; 275 gai/ha,0%
same,Visual Weed Control (%) Obs,CYPIR; 68.75 gai/ha,0%
same,Visual Weed Control (%) Obs,CYPIR; 137.5 gai/ha,0%
same,Visual Weed Control (%) Obs,CYPIR; 275 gai/ha,60%
"O=C(O)c1ccccc1C(=O)Nc1cccc2ccccc12 [Naptalam, 2-[(1-naphthalenylamino)carbonyl]benzoic acid, reference compound]",Visual Weed Control (%) Obs,FIMMI; 330 gai/ha,50%
same,Visual Weed Control (%) Obs,CYPRO; 330 gai/ha,0%
same,Visual Weed Control (%) Obs,CYPRO; 1320 gai/ha,50%
same,Visual Weed Control (%) Obs,ECHOR; 330 gai/ha,20%
same,Visual Weed Control (%) Obs,ECHOR; 660 gai/ha,25%
same,Visual Weed Control (%) Obs,ECHOR; 1320 gai/ha,30%
same,Visual Weed Control (%) Obs,"BRAPP; 22 DAA, 30 gai/ha",0%
same,Visual Weed Control (%) Obs,"BRAPP; 22 DAA, 60 gai/ha",0%
same,Visual Weed Control (%) Obs,"BRAPP; 22 DAA, 120 gai/ha",0%
same,Visual Weed Control (%) Obs,ECHCG; 330 gai/ha,20%
same,Visual Weed Control (%) Obs,"IPOHE; 22 DAA, 60 gai/ha",15%
same,Visual Weed Control (%) Obs,"IPOHE; 22 DAA, 120 gai/ha",15%
same,Visual Weed Control (%) Obs,"LEFCH; 22 DAA, 60 gai/ha",15%
same,Visual Weed Control (%) Obs,"LEFCH; 22 DAA, 120 gai/ha",15%
